Test results as given in US8361998B2, “Compounds and their use as IKACh blockers” (AstraZeneca AB, priority 2010, dated 2013).
Structures can show the parent of a compound that is named as a salt.

Legend:
[1] = molecular target: T1, human ether-a-go-go-related gene (hERG)-encoded K+ channel (Homo sapiens, UniProt Q12809); experiment: hERG inhibition, IonWorks HT, hERG-expressing CHO cells; assay type: cell-based
T1 construct: expressed in transfected cells; host or cells: Chinese hamster ovary K1 (CHO) cells
Experimental: Inhibition of the human ether-a-go-go-related gene (hERG)-encoded K^+ channel was determined using hERG-expressing Chinese hamster ovary K1 (CHO) cells on a IonWorks™ HT assay platform as described by M. H. Bridgland-Taylor et al. J. of Pharmacological and Toxicological Methods (2006); 54:189-199.

[2] = tested on: anaesthetized rabbits subjected to vagal stimulation; experiment: In vivo PD model, anaesthetized rabbits with vagal stimulation: right atrial effective refractory period (RAERP), QT; set-up: species or system rabbit
Experimental: Rabbits were anaesthetized using ketalar and domitor (2.5 and 0.07 mg/kg, respectively) as an i.v. bolus followed by a maintenance i.v. infusion (11 and 0.33 mg/kg/h, respectively) and ventilated with room air. Two percutaneous polyethylene catheter (Venflon 0.8 mm, Viggo, Helsingborg, Sweden) for administration of anaesthetics and drug infusions, respectively, were inserted into marginal veins on the right and left ear. A polyethylene catheter (Intramedic PE 160 Clay Adams, Becton Dickinson, Sparks, Md., USA) was inserted into the left carotid artery and advanced to the level of the aortic arch for blood pressure recording (by means of a pressure transducer, Peter von Berg Medizintechnik Gmbh, Kirchseeon/Englharting, Germany) and for blood sampling. For recording of right atrial electrogram and for atrial pacing, a 4F quadripolar electrophysiological recording catheters (Electrophysiology catheter-Deflectable tip, Biosense Webster Inc, Johnson & Johnson, Diamond Bar, Calif., USA) was advanced into the right jugular vein and positioned high up in the right atrium (HRA). Electrodes were advanced via introducers (4F Fast-Cath haemostasis introducer, ST. Jude Medical, DAIG Division, Inc. Minnetonka, Minn., USA) correctly positioned through fluoroscopic guidance. The effective refractory period in the right atrium (RAERP) was determined at a stimulation current strength approximately 20% above the threshold for pacing the atria. A custom-made PC-based (AstraZeneca R&D, Mölndal, Sweden) programmable stimulator and constant current pulse generator (WPI Stimulus Isolator, World Precision Instruments, Sarasota, Fla., USA) were used for stimulation at one or two predefined basic cycle lengths (S1) of for example 200 and 300 ms. A premature extra stimulus (S2) was introduced after every 10th paced basic beat with increments of 2 ms until capture. […] For vagal stimulation, both vagal nerves were ligated and cut in the cervical region and propranolol (0.5 mg/kg) was administrated as an i.v. infusion to decrease sympathetic influence. Electrodes were inserted in the middle of the right vagal nerve to stimulate the efferent vagi. The RAERP was determined without or with vagal stimulation at 50% of maximal vagal response. Subsequent infusion of compound aimed to increase the RAERP with 20 ms during the first dose of two consecutive doses. The drug infusion was followed by a washout period of approximately 30-60 min. QT prolongation was recorded from surface electrocardiography (ECG). The effect on RAERP was measured several times during infusion and washout and blood samples were taken at each measurements. Effect and plasma concentration data was analysed accounting for a concentration-effect-time delay and the unbound plasma concentration (Ceu) increasing the RAERP by 20 ms was calculated.

T1 sequence (Q12809 whole entry): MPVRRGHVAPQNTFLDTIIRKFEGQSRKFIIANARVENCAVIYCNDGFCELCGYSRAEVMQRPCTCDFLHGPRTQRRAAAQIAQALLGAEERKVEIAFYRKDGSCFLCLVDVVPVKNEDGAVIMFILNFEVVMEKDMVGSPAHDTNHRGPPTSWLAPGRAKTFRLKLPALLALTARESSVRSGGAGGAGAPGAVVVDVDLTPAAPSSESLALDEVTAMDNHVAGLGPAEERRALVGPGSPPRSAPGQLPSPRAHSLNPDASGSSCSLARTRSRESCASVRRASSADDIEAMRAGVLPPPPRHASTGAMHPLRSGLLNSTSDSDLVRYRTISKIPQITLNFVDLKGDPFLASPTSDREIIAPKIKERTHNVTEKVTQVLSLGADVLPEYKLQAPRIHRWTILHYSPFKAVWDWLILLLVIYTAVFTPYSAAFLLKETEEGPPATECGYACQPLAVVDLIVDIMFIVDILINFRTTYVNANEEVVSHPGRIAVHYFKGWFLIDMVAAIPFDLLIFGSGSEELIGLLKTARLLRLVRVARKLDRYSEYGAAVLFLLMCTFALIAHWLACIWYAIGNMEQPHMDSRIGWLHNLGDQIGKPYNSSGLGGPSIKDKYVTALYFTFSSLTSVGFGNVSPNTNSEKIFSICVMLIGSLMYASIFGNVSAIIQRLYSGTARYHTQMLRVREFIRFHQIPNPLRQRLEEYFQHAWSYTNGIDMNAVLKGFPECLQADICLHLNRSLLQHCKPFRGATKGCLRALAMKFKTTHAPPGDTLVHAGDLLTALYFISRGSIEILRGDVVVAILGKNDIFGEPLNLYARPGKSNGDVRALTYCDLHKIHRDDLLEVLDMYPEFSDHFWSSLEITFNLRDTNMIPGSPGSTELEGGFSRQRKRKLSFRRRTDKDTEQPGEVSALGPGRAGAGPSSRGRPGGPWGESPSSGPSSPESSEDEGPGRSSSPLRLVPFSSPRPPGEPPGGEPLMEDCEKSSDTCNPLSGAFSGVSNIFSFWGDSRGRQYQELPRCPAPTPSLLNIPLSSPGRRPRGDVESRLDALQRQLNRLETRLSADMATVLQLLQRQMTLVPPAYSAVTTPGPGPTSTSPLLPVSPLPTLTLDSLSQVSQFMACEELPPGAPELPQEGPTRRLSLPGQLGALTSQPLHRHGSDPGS

SMILES | IC50 [1] [µM] | Ceu 20 ms [2] [µM]
CCC[C@@H](CN1CCC1)N(C)C(=O)c1ccc(Cl)cc1 [Example 1.2, (S)-N-(1-(Azetidin-1-yl)pentan-2-yl)-4-chloro-N-methylbenzamide] | 20 | 0.40
CCC[C@@H](CN1CCC1)N(C)C(=O)c1ccc(F)c(C)c1 [Example 1.4, (S)-N-(1-(Azetidin-1-yl)pentan-2-yl)-4-fluoro-N,3-dimethyl-benzamide] | > 33 | 0.60
CC(C)[C@@H](CN1CCCC1)N(C)C(=O)c1ccc(F)cc1Cl [Example 1.17, (S)-2-Chloro-4-fluoro-N-methyl-N-(3-methyl-1-(pyrrolidin-1-yl)butan-2-yl)benzamide] | > 100 | 1.40
Cc1cc(C(=O)N(C)[C@H](CN2CCC2)C2CC2)ccc1F [Example 4.1, (S)—N-(2-(Azetidin-1-yl)-1-cyclopropylethyl)-4-fluoro-N,3-dimethylbenzamide] | > 33 | 0.74
CN(C(=O)c1ccc(Br)cc1)[C@H](CN1CC(O)C1)C1CC1 [Example 4.4, (S)-4-Bromo-N-(1-cyclopropyl-2-(3-hydroxyazetidin-1-yl)ethyl)-N-methylbenzamide] | > 33 | 0.75
CC(C)[C@@H](CN1CCC1)N(C)C(=O)c1ccc(Cl)cc1 [Example 5.1, (S)-N-(1-(Azetidin-1-yl)-3-methylbutan-2-yl)-4-chloro-N-methylbenzamide] | 76 | 1.00
CC(C)[C@@H](CN1CCC1)N(C)C(=O)c1ccc(Br)cc1.O=C(O)CCC(=O)O [Example 5.2] | 34 | 0.60
Cc1cc(C(=O)N(C)[C@H](CN2CC(O)C2)C(C)C)ccc1F [Example 6.1, (S)-4-Fluoro-N-(1-(3-hydroxyazetidin-1-yl)-3-methylbutan-2-yl)-N,3-dimethylbenzamide] | > 100 | 0.54
CC(C)[C@@H](CN1CC(O)C1)N(C)C(=O)c1ccc(Cl)cc1 [Example 6.2, (S)-4-Chloro-N-(1-(3-hydroxyazetidin-1-yl)-3-methylbutan-2-yl)-N-methylbenzamide] | > 53 | 0.40
Cc1cc(C(=O)N(C)[C@H](CN2CC(O)C2)C2CC2)ccc1F [Example 7.1, (S)—N-(1-Cyclopropyl-2-(3-hydroxyazetidin-1-yl)ethyl)-4-fluoro-N,3-dimethylbenzamide] | > 33 | 5.40
CN(C(=O)c1ccc(Cl)cc1)[C@H](CN1CC(O)C1)C1CC1 [Example 7.2, (S)-4-Chloro-N-(1-cyclopropyl-2-(3-hydroxyazetidin-1-yl)ethyl)-N-methylbenzamide] | > 33 | 1.00
CN(C(=O)c1ccc(F)c(Cl)c1)[C@H](CN1CC(O)C1)C1CC1 [Example 7.3, (S)-3-Chloro-N-(1-cyclopropyl-2-(3-hydroxyazetidin-1-yl)ethyl)-4-fluoro-N-methylbenzamide] | > 33 | 2.10
CCC[C@@H](CN1CC(O)C1)N(C)C(=O)c1ccc(F)c(F)c1 [Example 8.1, (S)-3,4-Difluoro-N-(1-(3-hydroxyazetidin-1-yl)pentan-2-yl)-N-methylbenzamide] | > 100 | 0.87
CCC[C@@H](CN1CC(O)C1)N(C)C(=O)c1ccc(Cl)cc1 [Example 8.2, (S)-4-Chloro-N-(1-(3-hydroxyazetidin-1-yl)pentan-2-yl)-N-methyl-benzamide, hydrochloride] | > 57 | 0.34
CCC[C@@H](CN1CC(O)C1)N(C)C(=O)c1ccc(F)cc1 [Example 8.6, (S)-4-Fluoro-N-(1-(3-hydroxyazetidin-1-yl)pentan-2-yl)-N-methylbenzamide] | > 33 | 2.50
CC(C)[C@@H](CN1CC[C@H](O)C1)N(C)C(=O)c1ccc(Cl)cc1 [Example 10.2, 4-Chloro-N-((S)-1-((S)-3-hydroxypyrrolidin-1-yl)-3-methylbutan-2-yl)-N-methylbenzamide hemi tartrate] | > 33 | 1.40

SMILES | IC50 [1] [µM] | Ceu 20 ms [2] [µM]
Cc1cc(C(=O)N(C)[C@H](CN2CCCC2)C(C)C)ccc1F [Example 12.1, (S)-4-Fluoro-N,3-dimethyl-N-(3-methyl-1-(pyrrolidin-1-yl)butan-2-yl)benzamide-dihydroxysuccinate] | > 100 | 0.68
Cc1cccc(C(=O)N(C)[C@H](CN2CCCC2)C(C)C)c1 [Example 12.2, (S)-1-(2-(N,3-Dimethylbenzamido)-3-methylbutyl)pyrrolidinium 2,3-dihydroxysuccinate] | > 33 | 2.20
CC(C)[C@@H](CN1CCCC1)N(C)C(=O)c1ccc(F)c(Cl)c1 [Example 16.55, (S)-3-Chloro-4-fluoro-N-methyl-N-(3-methyl-1-(pyrrolidin-1-yl)butan-2-yl)benzamide] | > 31 | 0.60
CC(C)[C@@H](CN1CCCC1)N(C)C(=O)c1ccc(Cl)cc1 [Example 18, (S)-1-(2-(4-Chloro-N-methylbenzamido)-3-methylbutyl)pyrrolidinium chloride] | > 30 | 0.70
CC(C)[C@@H](CN1CCCC1)N(C)C(=O)c1ccc(Br)cc1 [Example 19, (S)-1-(2-(4-bromo-N-methylbenzamido)-3-methylbutyl)pyrrolidinium 3-carboxy-2,3-dihydroxypropanoate] | 17 | 0.34
CC[C@H](C)[C@@H](CN1CC(O)C1)N(C)C(=O)c1ccc(C#N)cc1F [Example 29.7, 4-Cyano-2-fluoro-N-((2S,3S)-1-(3-hydroxyazetidin-1-yl)-3-methylpentan-2-yl)-N-methylbenzamide] | > 33 | 0.79
CCCC[C@@H](CN1CC(O)C1)N(C)C(=O)c1ccc(C#N)cc1 [Example 33.4, 4-Cyano-N-[(2S)-1-(3-hydroxyazetidin-1-yl)hexan-2-yl]-N-methylbenzamide] | 18 | 0.52
CCCC[C@@H](CN1CC(O)C1)N(C)C(=O)c1ccc(F)cc1 [Example 33.7, 4-Fluoro-N-[(2S)-1-(3-hydroxyazetidin-1-yl)hexan-2-yl]-N-methylbenzamide] | 79 | 0.80
CC(C)C[C@@H](CN1CC(O)C1)N(C)C(=O)c1ccc(F)c(F)c1 [Example 38.1, 3,4-Difluoro-N-[(2S)-1-(3-hydroxyazetidin-1-yl)-4-methylpentan-2-yl]-N-methylbenzamide] | > 33 | 0.34
CC(C)C[C@@H](CN1CC(O)C1)N(C)C(=O)c1ccc(Cl)cc1 [Example 38.2, 4-Chloro-N-[(2S)-1-(3-hydroxyazetidin-1-yl)-4-methylpentan-2-yl]-N-methylbenzamide] | > 33 | 0.38
CC(C)C[C@@H](CN1CC(O)C1)N(C)C(=O)c1ccc(C#N)cc1F [Example 38.6, 4-Cyano-2-fluoro-N-[(2S)-1-(3-hydroxyazetidin-1-yl)-4-methylpentan-2-yl]-N-methylbenzamide] | > 33 | 0.72
CN(C(=O)c1ccc(C#N)cc1)[C@H](CN1CC(O)C1)C1CCC1 [Example 39.2, (S)-4-Cyano-N-(1-cyclobutyl-2-(3-hydroxyazetidin-1-yl)ethyl)-N-methylbenzamide] | 80 | 0.28
CC[C@@H](CN1CC(O)C1)N(C)C(=O)c1ccc(Cl)cc1 [Example 39.12, (S)-4-Chloro-N-(1-(3-hydroxyazetidin-1-yl)butan-2-yl)-N-methylbenzamide] | > 33 | 2.06
CN(C(=O)c1ccc(Cl)cc1)[C@H](CN1CC(O)C1)C1CCC1 [Example 39.14, (S)-4-Chloro-N-(1-cyclobutyl-2-(3-hydroxyazetidin-1-yl)ethyl)-N-methylbenzamide] | > 33 | 0.10
Cc1cc(C(=O)N(C)[C@H](CN2CC(O)C2)C2CCC2)ccc1F [Example 39.16, (S)—N-(1-Cyclobutyl-2-(3-hydroxyazetidin-1-yl)ethyl)-4-fluoro-N,3-dimethylbenzamide] | > 33 | 0.24
